Test results taken from US20120214862A1, “MODULATION OF FACTOR 7 EXPRESSION” (ISIS Pharmaceuticals, Inc., priority 2009, published 2012).
In the oligonucleotide strings, read from the 5' end, every base follows the letter of its sugar. An asterisk marks phosphorothioate; unmarked linkages are phosphodiester. Other units and linkages are bracketed, terminal groups are in braces. A string of capitals states the bases alone. e = 2'-O-(2-methoxyethyl) (MOE); [5mC] = 5-methylcytosine; d = 2'-deoxy (DNA)

Test system: human Factor 7 mRNA
Assay: Antisense inhibition of human Factor 7 mRNA in HepB3 cells, lipofectin, 50 nM, real-time RT-PCR
Assay type: cell-based
Details: HepB3 cells; for % Inhibition (human Factor 7 mRNA): Example 4, lipofectin, 50 nM, ~24 h, relative to untreated control
Outline: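 4,000 cells/well; ~24 h exposure; RNA isolated; probe set RTS 2927; normalised to RIBOGREEN® total RNA; % inhibition vs untreated.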

[1] = gapmers targeted to nucleobases 11830 to 11869 of SEQ ID NO: 1 (Table 9)
[2] = gapmers targeted to nucleobases 13760 to 13789 of SEQ ID NO: 1 (Table 10)
[3] = gapmers targeted to nucleobases 14707 to 14732 of SEQ ID NO: 1 (Table 11)

Row | Substance | % Inhibition of human Factor 7 mRNA levels [1] | % Inhibition (human Factor 7 mRNA) | further results
1 | 422238 (antisense eA*e[5mC]*dA*dA*dT*dG*dG*dT*d[5mC]*dA*dG*dG*dG*d[5mC]*dT*eG*eG*eT*eT*eT) [compound 422238] | 64% | – | –
2 | 422239 (antisense eG*eA*d[5mC]*dA*dA*dT*dG*dG*dT*d[5mC]*dA*dG*dG*dG*d[5mC]*eT*eG*eG*eT*eT) [compound 422239] | 67% | – | –
3 | 422240 (antisense eA*eG*dA*d[5mC]*dA*dA*dT*dG*dG*dT*d[5mC]*dA*dG*dG*dG*e[5mC]*eT*eG*eG*eT) [compound 422240] | 66% | – | –
4 | 422241 (antisense eG*eA*dG*dA*d[5mC]*dA*dA*dT*dG*dG*dT*d[5mC]*dA*dG*dG*eG*e[5mC]*eT*eG*eG) [compound 422241] | 61% | – | –
5 | 422242 (antisense eG*eG*dA*dG*dA*d[5mC]*dA*dA*dT*dG*dG*dT*d[5mC]*dA*dG*eG*eG*e[5mC]*eT*eG) [compound 422242] | 64% | – | –
6 | 422243 (antisense eA*eG*dG*dA*dG*dA*d[5mC]*dA*dA*dT*dG*dG*dT*d[5mC]*dA*eG*eG*eG*e[5mC]*eT) [compound 422243] | 62% | – | –
7 | 422244 (antisense eG*eA*dG*dG*dA*dG*dA*d[5mC]*dA*dA*dT*dG*dG*dT*d[5mC]*eA*eG*eG*eG*e[5mC]) [compound 422244] | 55% | – | –
8 | 422245 (antisense eT*eG*dA*dG*dG*dA*dG*dA*d[5mC]*dA*dA*dT*dG*dG*dT*e[5mC]*eA*eG*eG*eG) [compound 422245] | 24% | – | –
9 | 422246 (antisense e[5mC]*eT*dG*dA*dG*dG*dA*dG*dA*d[5mC]*dA*dA*dT*dG*dG*eT*e[5mC]*eA*eG*eG) [compound 422246] | 46% | – | –
10 | 422247 (antisense eG*e[5mC]*dT*dG*dA*dG*dG*dA*dG*dA*d[5mC]*dA*dA*dT*dG*eG*eT*e[5mC]*eA*eG) [compound 422247] | 36% | – | –
11 | 422248 (antisense eG*eG*d[5mC]*dT*dG*dA*dG*dG*dA*dG*dA*d[5mC]*dA*dA*dT*eG*eG*eT*e[5mC]*eA) [compound 422248] | 60% | – | –
12 | 422249 (antisense eT*eG*dG*d[5mC]*dT*dG*dA*dG*dG*dA*dG*dA*d[5mC]*dA*dA*eT*eG*eG*eT*e[5mC]) [compound 422249] | 52% | – | –
13 | 422250 (antisense e[5mC]*eT*dG*dG*d[5mC]*dT*dG*dA*dG*dG*dA*dG*dA*d[5mC]*dA*eA*eT*eG*eG*eT) [compound 422250] | 54% | – | –
14 | 422251 (antisense eG*e[5mC]*dT*dG*dG*d[5mC]*dT*dG*dA*dG*dG*dA*dG*dA*d[5mC]*eA*eA*eT*eG*eG) [compound 422251] | 36% | – | –
15 | 422253 (antisense e[5mC]*e[5mC]*dG*d[5mC]*d[5mC]*dG*dG*d[5mC]*dT*d[5mC]*dT*dG*d[5mC]*dT*d[5mC]*eA*eT*e[5mC]*e[5mC]*e[5mC]) [compound 422253] | – | – | % Inhibition of human Factor 7 mRNA levels [2]: 61%
16 | 422254 (antisense e[5mC]*e[5mC]*d[5mC]*dG*d[5mC]*d[5mC]*dG*dG*d[5mC]*dT*d[5mC]*dT*dG*d[5mC]*dT*e[5mC]*eA*eT*e[5mC]*e[5mC]) [compound 422254] | – | – | % Inhibition of human Factor 7 mRNA levels [2]: 42%
17 | 422255 (antisense eA*e[5mC]*d[5mC]*d[5mC]*dG*d[5mC]*d[5mC]*dG*dG*d[5mC]*dT*d[5mC]*dT*dG*d[5mC]*eT*e[5mC]*eA*eT*e[5mC]) [compound 422255] | – | – | % Inhibition of human Factor 7 mRNA levels [2]: 30%
18 | 422256 (antisense e[5mC]*eA*d[5mC]*d[5mC]*d[5mC]*dG*d[5mC]*d[5mC]*dG*dG*d[5mC]*dT*d[5mC]*dT*dG*e[5mC]*eT*e[5mC]*eA*eT) [compound 422256] | – | – | % Inhibition of human Factor 7 mRNA levels [2]: 29%
19 | 422257 (antisense e[5mC]*e[5mC]*dA*d[5mC]*d[5mC]*d[5mC]*dG*d[5mC]*d[5mC]*dG*dG*d[5mC]*dT*d[5mC]*dT*eG*e[5mC]*eT*e[5mC]*eA) [compound 422257] | – | – | % Inhibition of human Factor 7 mRNA levels [2]: 65%
20 | 422258 (antisense eG*e[5mC]*d[5mC]*dA*d[5mC]*d[5mC]*d[5mC]*dG*d[5mC]*d[5mC]*dG*dG*d[5mC]*dT*d[5mC]*eT*eG*e[5mC]*eT*e[5mC]) [compound 422258] | – | – | % Inhibition of human Factor 7 mRNA levels [2]: 66%
21 | 422259 (antisense e[5mC]*eG*d[5mC]*d[5mC]*dA*d[5mC]*d[5mC]*d[5mC]*dG*d[5mC]*d[5mC]*dG*dG*d[5mC]*dT*e[5mC]*eT*eG*e[5mC]*eT) [compound 422259] | – | – | % Inhibition of human Factor 7 mRNA levels [2]: 61%
22 | 422260 (antisense eG*e[5mC]*dG*d[5mC]*d[5mC]*dA*d[5mC]*d[5mC]*d[5mC]*dG*d[5mC]*d[5mC]*dG*dG*d[5mC]*eT*e[5mC]*eT*eG*e[5mC]) [compound 422260] | – | – | % Inhibition of human Factor 7 mRNA levels [2]: 56%
23 | 422261 (antisense eT*eG*d[5mC]*dG*d[5mC]*d[5mC]*dA*d[5mC]*d[5mC]*d[5mC]*dG*d[5mC]*d[5mC]*dG*dG*e[5mC]*eT*e[5mC]*eT*eG) [compound 422261] | – | – | % Inhibition of human Factor 7 mRNA levels [2]: 47%

Row | Substance | % Inhibition of human Factor 7 mRNA levels [1] | % Inhibition (human Factor 7 mRNA) | further results
24 | 422262 (antisense e[5mC]*eT*dG*d[5mC]*dG*d[5mC]*d[5mC]*dA*d[5mC]*d[5mC]*d[5mC]*dG*d[5mC]*d[5mC]*dG*eG*e[5mC]*eT*e[5mC]*eT) [compound 422262] | – | – | % Inhibition of human Factor 7 mRNA levels [2]: 0%
25 | 422263 (antisense eG*eG*dA*dA*dG*dA*dA*dG*dG*dG*dA*d[5mC]*dG*dG*dA*eA*eG*eG*eT*eG) [compound 422263] | – | 19% | –
26 | 422264 (antisense e[5mC]*eG*dG*dA*dA*dG*dA*dA*dG*dG*dG*dA*d[5mC]*dG*dG*eA*eA*eG*eG*eT) [compound 422264] | – | 24% | –
27 | 422265 (antisense eG*e[5mC]*dG*dG*dA*dA*dG*dA*dA*dG*dG*dG*dA*d[5mC]*dG*eG*eA*eA*eG*eG) [compound 422265] | – | 34% | –
28 | 422266 (antisense e[5mC]*eG*d[5mC]*dG*dG*dA*dA*dG*dA*dA*dG*dG*dG*dA*d[5mC]*eG*eG*eA*eA*eG) [compound 422266] | – | 13% | –
29 | 422267 (antisense eG*e[5mC]*dG*d[5mC]*dG*dG*dA*dA*dG*dA*dA*dG*dG*dG*dA*e[5mC]*eG*eG*eA*eA) [compound 422267] | – | 38% | –
30 | 422268 (antisense eA*eG*d[5mC]*dG*d[5mC]*dG*dG*dA*dA*dG*dA*dA*dG*dG*dG*eA*e[5mC]*eG*eG*eA) [compound 422268] | – | 63% | –
31 | 422269 (antisense eG*eA*dG*d[5mC]*dG*d[5mC]*dG*dG*dA*dA*dG*dA*dA*dG*dG*eG*eA*e[5mC]*eG*eG) [compound 422269] | – | 27% | –
32 | 422270 (antisense eT*eG*dA*dG*d[5mC]*dG*d[5mC]*dG*dG*dA*dA*dG*dA*dA*dG*eG*eG*eA*e[5mC]*eG) [compound 422270] | – | 15% | –
33 | 422271 (antisense e[5mC]*eT*dG*dA*dG*d[5mC]*dG*d[5mC]*dG*dG*dA*dA*dG*dA*dA*eG*eG*eG*eA*e[5mC]) [compound 422271] | – | 32% | –
34 | 422272 (antisense eA*e[5mC]*dT*dG*dA*dG*d[5mC]*dG*d[5mC]*dG*dG*dA*dA*dG*dA*eA*eG*eG*eG*eA) [compound 422272] | – | 12% | –
35 | 422273 (antisense eT*eA*d[5mC]*dT*dG*dA*dG*d[5mC]*dG*d[5mC]*dG*dG*dA*dA*dG*eA*eA*eG*eG*eG) [compound 422273] | – | 0% | –
36 | 422274 (antisense eT*eT*dA*d[5mC]*dT*dG*dA*dG*d[5mC]*dG*d[5mC]*dG*dG*dA*dA*eG*eA*eA*eG*eG) [compound 422274] | – | 24% | –
37 | 422275 (antisense eG*eT*dT*dA*d[5mC]*dT*dG*dA*dG*d[5mC]*dG*d[5mC]*dG*dG*dA*eA*eG*eA*eA*eG) [compound 422275] | – | 42% | –
38 | 422276 (antisense eG*eG*dT*dT*dA*d[5mC]*dT*dG*dA*dG*d[5mC]*dG*d[5mC]*dG*dG*eA*eA*eG*eA*eA) [compound 422276] | – | 66% | –
39 | 422277 (antisense e[5mC]*e[5mC]*dT*dG*dA*dG*dG*d[5mC]*d[5mC]*dA*dG*d[5mC]*dA*dG*dA*eT*e[5mC]*eA*e[5mC]*eG) [compound 422277] | – | – | % Inhibition of human Factor 7 mRNA levels [3]: 56%
40 | 422278 (antisense eG*e[5mC]*d[5mC]*dT*dG*dA*dG*dG*d[5mC]*d[5mC]*dA*dG*d[5mC]*dA*dG*eA*eT*e[5mC]*eA*e[5mC]) [compound 422278] | – | – | % Inhibition of human Factor 7 mRNA levels [3]: 64%
41 | 422279 (antisense eA*eG*d[5mC]*d[5mC]*dT*dG*dA*dG*dG*d[5mC]*d[5mC]*dA*dG*d[5mC]*dA*eG*eA*eT*e[5mC]*eA) [compound 422279] | – | – | % Inhibition of human Factor 7 mRNA levels [3]: 56%
42 | 422280 (antisense e[5mC]*eA*dG*d[5mC]*d[5mC]*dT*dG*dA*dG*dG*d[5mC]*d[5mC]*dA*dG*d[5mC]*eA*eG*eA*eT*e[5mC]) [compound 422280] | – | – | % Inhibition of human Factor 7 mRNA levels [3]: 52%
43 | 422281 (antisense eG*e[5mC]*dA*dG*d[5mC]*d[5mC]*dT*dG*dA*dG*dG*d[5mC]*d[5mC]*dA*dG*e[5mC]*eA*eG*eA*eT) [compound 422281] | – | – | % Inhibition of human Factor 7 mRNA levels [3]: 57%
44 | 422282 (antisense eA*eG*d[5mC]*dA*dG*d[5mC]*d[5mC]*dT*dG*dA*dG*dG*d[5mC]*d[5mC]*dA*eG*e[5mC]*eA*eG*eA) [compound 422282] | – | – | % Inhibition of human Factor 7 mRNA levels [3]: 48%
45 | 422283 (antisense e[5mC]*eA*dG*d[5mC]*dA*dG*d[5mC]*d[5mC]*dT*dG*dA*dG*dG*d[5mC]*d[5mC]*eA*eG*e[5mC]*eA*eG) [compound 422283] | – | – | % Inhibition of human Factor 7 mRNA levels [3]: 50%
